≈ marks a conversion by molar mass, not a printed value.
Experiments:
[1] = target: T1, M2 (muscarinic subtype 2 acetylcholine receptor) (Homo sapiens, UniProt P08172); test: radioligand binding inhibition screen; conditions: read-out: % inhibition or stimulation^a
T1 construct: gene CHRM2; human recombinant receptor
T1 sequence (P08172 1-466): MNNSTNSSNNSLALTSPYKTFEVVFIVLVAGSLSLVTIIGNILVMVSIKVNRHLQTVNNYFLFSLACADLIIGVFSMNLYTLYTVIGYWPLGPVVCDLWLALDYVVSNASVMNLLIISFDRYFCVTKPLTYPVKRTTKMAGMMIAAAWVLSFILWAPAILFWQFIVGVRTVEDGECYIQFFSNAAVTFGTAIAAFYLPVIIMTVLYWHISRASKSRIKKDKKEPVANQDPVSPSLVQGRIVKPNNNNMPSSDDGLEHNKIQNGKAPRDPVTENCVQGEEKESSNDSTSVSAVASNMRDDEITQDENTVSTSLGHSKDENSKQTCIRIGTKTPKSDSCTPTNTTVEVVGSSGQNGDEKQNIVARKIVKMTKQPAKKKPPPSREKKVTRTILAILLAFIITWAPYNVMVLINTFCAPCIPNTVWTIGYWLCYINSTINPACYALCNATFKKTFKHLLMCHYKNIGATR
From the text: radioligand binding inhibition screen on M2 (muscarinic subtype 2 acetylcholine receptor)

[2] = target: T1, M2 (muscarinic subtype 2 acetylcholine receptor); test: radioligand binding inhibition; conditions: range of […] separate tests ([…] and […])
M4 = target: T2, M4 (Homo sapiens, UniProt P08173); test: radioligand binding inhibition; conditions: […] separate tests; read-out: EC50 or IC50
T2 construct: gene CHRM4; human recombinant receptor
T2 sequence (P08173 1-479): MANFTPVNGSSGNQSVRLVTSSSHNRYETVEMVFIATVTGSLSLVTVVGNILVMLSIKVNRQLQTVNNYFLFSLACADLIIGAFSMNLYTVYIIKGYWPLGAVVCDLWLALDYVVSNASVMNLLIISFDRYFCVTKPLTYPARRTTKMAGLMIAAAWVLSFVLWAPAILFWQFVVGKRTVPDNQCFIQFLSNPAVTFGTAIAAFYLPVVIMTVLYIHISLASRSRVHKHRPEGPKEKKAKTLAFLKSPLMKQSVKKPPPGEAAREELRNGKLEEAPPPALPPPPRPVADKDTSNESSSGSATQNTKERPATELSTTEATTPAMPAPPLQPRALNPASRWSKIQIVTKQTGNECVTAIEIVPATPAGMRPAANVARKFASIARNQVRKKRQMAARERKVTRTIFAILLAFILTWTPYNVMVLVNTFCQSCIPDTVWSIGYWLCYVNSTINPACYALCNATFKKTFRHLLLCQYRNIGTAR
From the text: radioligand binding inhibition on M4

M5 = target: T3, M5 (Homo sapiens, UniProt P08912); test: radioligand binding inhibition; conditions: […] separate tests; read-out: EC50 or IC50
T3 construct: gene CHRM5; human recombinant receptor
T3 sequence (P08912 1-532): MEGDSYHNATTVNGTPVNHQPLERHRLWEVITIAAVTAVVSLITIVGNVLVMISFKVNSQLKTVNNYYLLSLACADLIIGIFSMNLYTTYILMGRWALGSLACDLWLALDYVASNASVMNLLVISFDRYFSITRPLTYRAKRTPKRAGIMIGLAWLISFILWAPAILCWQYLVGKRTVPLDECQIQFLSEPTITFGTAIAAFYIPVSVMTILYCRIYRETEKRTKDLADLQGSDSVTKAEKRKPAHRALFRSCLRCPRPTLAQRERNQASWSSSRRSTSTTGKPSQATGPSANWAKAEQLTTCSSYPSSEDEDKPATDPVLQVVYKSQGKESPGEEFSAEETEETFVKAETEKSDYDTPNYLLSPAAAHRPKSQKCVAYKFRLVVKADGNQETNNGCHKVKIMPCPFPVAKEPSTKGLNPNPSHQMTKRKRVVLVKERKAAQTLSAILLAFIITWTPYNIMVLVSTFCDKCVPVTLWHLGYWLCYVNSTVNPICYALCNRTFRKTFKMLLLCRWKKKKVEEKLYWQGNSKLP
From the text: radioligand binding inhibition on M5

M1 = target: T4, M1 (Homo sapiens, UniProt P11229); test: radioligand binding inhibition; conditions: […] test; read-out: EC50 or IC50
T4 construct: gene CHRM1; human recombinant receptor
T4 sequence (P11229 1-460): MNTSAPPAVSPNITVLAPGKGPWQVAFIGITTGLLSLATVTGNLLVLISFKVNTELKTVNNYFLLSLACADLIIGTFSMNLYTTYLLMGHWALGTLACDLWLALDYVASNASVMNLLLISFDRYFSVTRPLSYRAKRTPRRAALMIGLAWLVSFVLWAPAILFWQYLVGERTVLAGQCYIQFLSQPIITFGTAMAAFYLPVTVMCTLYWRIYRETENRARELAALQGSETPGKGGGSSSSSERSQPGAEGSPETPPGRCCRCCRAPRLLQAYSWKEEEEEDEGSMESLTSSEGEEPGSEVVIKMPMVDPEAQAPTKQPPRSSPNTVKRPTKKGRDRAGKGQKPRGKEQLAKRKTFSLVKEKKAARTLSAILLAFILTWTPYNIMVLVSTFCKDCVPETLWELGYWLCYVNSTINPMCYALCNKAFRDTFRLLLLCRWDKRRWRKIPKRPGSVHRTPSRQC
From the text: radioligand binding inhibition on M1

[3] = target: T5, hERG (human ether-a-go-go-related gene) channel (Homo sapiens, UniProt Q12809); test: hERG tail current electrophysiology, HEK293 cells; format: cell-based; conditions: room temperature; […] tested; corrected for vehicle rundown; point-to-point fit
T5 construct: gene KCNH2; hERG cDNA stably transfected in HEK293 cells; homotetramer
T5 sequence (Q12809 whole entry): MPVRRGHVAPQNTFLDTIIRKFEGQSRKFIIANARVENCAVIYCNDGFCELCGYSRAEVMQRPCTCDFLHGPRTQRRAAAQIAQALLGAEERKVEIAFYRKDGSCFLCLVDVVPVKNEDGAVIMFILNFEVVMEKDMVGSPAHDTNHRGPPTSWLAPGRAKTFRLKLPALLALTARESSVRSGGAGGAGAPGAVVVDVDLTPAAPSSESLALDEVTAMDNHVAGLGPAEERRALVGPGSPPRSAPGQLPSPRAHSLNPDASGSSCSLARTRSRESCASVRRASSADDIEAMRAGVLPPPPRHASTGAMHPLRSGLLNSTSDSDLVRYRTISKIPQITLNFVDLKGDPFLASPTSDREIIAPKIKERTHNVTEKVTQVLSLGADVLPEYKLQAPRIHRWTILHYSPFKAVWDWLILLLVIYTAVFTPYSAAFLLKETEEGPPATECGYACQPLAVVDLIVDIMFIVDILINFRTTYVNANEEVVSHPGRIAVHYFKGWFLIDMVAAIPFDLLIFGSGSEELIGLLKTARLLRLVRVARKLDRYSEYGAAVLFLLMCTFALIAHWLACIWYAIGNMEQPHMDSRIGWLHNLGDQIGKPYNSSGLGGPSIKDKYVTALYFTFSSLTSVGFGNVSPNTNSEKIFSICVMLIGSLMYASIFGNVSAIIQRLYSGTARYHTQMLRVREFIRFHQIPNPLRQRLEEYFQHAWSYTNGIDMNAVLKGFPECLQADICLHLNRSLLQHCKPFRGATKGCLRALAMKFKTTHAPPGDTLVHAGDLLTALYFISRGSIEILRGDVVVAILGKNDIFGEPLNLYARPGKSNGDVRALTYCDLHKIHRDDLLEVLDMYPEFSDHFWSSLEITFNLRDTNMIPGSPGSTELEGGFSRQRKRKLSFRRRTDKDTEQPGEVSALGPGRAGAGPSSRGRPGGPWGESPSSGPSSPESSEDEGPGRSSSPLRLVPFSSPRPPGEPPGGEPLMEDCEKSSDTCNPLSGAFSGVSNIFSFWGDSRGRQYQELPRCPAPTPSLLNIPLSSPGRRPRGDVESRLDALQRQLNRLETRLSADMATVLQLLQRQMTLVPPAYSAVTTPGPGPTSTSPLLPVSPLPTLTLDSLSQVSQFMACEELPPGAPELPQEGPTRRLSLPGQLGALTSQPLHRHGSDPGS

[4] = target: T6, M3 (muscarinic receptor M3) (Homo sapiens, UniProt P20309); test: radioligand binding inhibition; conditions: […] test; read-out: EC50 or IC50
T6 construct: gene CHRM3; human recombinant receptor
T6 sequence (P20309 whole entry): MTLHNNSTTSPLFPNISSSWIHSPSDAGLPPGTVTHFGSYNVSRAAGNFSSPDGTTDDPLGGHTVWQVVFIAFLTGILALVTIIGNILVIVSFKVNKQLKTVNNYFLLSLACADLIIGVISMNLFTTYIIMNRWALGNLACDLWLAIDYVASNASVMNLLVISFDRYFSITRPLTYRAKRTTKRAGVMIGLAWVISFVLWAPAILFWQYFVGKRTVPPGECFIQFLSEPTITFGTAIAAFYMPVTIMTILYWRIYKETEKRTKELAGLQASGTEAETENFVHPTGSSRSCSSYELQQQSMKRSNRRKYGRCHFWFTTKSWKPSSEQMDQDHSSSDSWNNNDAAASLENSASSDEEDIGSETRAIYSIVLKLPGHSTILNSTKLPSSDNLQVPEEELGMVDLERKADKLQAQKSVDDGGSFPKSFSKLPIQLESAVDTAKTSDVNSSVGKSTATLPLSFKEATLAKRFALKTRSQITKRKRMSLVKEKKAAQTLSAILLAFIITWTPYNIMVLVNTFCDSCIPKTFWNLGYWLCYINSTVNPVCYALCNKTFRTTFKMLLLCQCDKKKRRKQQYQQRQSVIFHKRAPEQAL
From the text: radioligand binding inhibition on M3 (muscarinic receptor M3)

[5] = target: T1, M2 (muscarinic subtype 2 acetylcholine receptor); test: functional M2 antagonist assay; format: cell-based; conditions: antagonist mode; range of […] separate tests ([…])
[6] = target: T1, M2 (muscarinic subtype 2 acetylcholine receptor); test: functional M2 agonist assay; format: cell-based; conditions: agonist mode; […] separate tests; read-out: EC50 or IC50
From the text: functional M2 agonist assay on M2 (muscarinic subtype 2 acetylcholine receptor)

inhibition at 10 µM [1]: 82%
IC50 [2]: 4.2 to 4.3 µM
IC50 (M4): > 30 µM
IC50 (M5): > 30 µM
IC50 (M1): 29 µM
IC50 [4]: > 30 µM
IC50 [5]: 21 to 28 µM
EC50 [6]: > 30 µM
Structure (SMILES): CN(C)c1cc(CNCC(C)(C)C)c(O)c2c1C[C@H]1C[C@H]3[C@H](N(C)C)C(=O)C(C(N)=O)=C(O)[C@@]3(O)C(=O)C1=C2O [omadacycline]
IC25 [3]: 166 µg/mL (≈ 298 µM)
